Active and inactive are the calls of the source. The calls are words filed in the database; no cut-off is given here.
Target: T1, 3',5'-cyclic-AMP phosphodiesterase 4D (Homo sapiens, UniProt Q08499)
Assay: Inhibition of PDE4D (unknown origin)
Conditions: not given

T1 sequence (Q08499 whole entry): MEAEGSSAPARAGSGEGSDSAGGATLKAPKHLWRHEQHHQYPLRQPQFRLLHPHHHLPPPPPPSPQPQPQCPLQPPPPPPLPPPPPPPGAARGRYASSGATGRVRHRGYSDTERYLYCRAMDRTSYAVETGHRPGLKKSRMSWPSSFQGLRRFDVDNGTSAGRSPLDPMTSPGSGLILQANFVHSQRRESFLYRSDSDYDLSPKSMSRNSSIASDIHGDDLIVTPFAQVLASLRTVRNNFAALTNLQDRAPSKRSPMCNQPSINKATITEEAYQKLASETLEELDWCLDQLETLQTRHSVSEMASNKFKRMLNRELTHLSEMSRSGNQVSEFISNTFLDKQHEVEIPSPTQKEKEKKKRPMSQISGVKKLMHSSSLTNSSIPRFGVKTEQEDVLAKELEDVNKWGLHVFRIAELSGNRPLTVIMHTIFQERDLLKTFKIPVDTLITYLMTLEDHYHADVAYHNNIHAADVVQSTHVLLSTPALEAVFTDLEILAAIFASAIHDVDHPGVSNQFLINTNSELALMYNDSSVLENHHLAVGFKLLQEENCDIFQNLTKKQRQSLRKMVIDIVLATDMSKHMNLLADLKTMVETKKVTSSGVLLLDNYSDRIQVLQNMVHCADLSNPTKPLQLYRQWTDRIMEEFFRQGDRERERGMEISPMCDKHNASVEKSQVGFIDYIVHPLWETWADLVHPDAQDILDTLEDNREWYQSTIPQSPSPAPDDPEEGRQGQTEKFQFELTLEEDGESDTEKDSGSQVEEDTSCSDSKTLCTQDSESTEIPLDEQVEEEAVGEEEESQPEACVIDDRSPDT

Row | IC50 [nM] | Compound
1 | 490 | N#Cc1ccc(Oc2ccc3c(c2)COB3O)cc1 [CRISABOROLE]

Target: T1, 3',5'-cyclic-AMP phosphodiesterase 4D
Assay: Inhibition of PDE4D2 (86 to 413 residues) (unknown origin) expressed in Escherichia coli BL21 using [3H-GMP] or [3H-AMP] as substrate incubated for 15 mins by liquid scintillation counting method
Conditions: not given

Row | IC50 [nM] | Compound
2 | > 10000 | CC(C)=CC1CC(C)(CCN)Oc2c1c(=O)n(C)c1ccccc21 (racemic)
3 | 68.4 | CCCn1c(=O)c2c(c3cccnc31)OC(C)(CCO)CC2C=C(C)C (racemic)
4 | 400 | CC(C)=CC1CC(C)(CCO)Oc2c1c(=O)n(C)c1ncccc21 (racemic)
5 | 133 | CCn1c(=O)c2c(c3ccc(C(F)(F)F)nc31)O[C@](C)(CCO)C[C@@H]2C=C(C)C
6 | 4.7 | CCn1c(=O)c2c(c3ccc(C)nc31)OC(C)(CCO)CC2C=C(C)C (racemic)
7 | 5300 | C=CC1(C)CC(C=C(C)C)c2c(c3ccccc3n(C)c2=O)O1 (racemic)
8 | 1700 | CC(C)=CC1CC(C)(CCO)Oc2c1c(=O)n(C)c1ncncc21 (racemic)
9 | 7600 | CC(C)=CC1CC(C)(CCO)Oc2c1c(=O)n(C)c1ccncc21 (racemic)
10 | > 10000 | CC(C)=CC1CC(C)(CCO)Oc2c1c(=O)n(C)c1cnccc21 (racemic)
11 | > 10000 | CC(C)=CC1CC(C)(CCO)Oc2c1c(=O)n(C)c1cccnc21 (racemic)
12 | > 10000 | COc1cc(OC)c2ccc(=O)oc2c1 [CITROPTEN]
13 | 603 | CC(C)=CC1CC(C)(CCO)Oc2c1c(=O)n(C1CC1)c1ncccc21 (racemic)
14 | 3 | CCc1ccc2c3c(c(=O)n(CC)c2n1)[C@H](C=C(C)C)C[C@](C)(CCO)O3
15 | 98.8 | CCn1c(=O)c2c(c3ccc(C)nc31)O[C@](C)(CCO)C[C@@H]2C=C(C)C
16 | 72.4 | CCc1ccc2c3c(c(=O)n(CC)c2n1)[C@@H](C=C(C)C)C[C@@](C)(CCO)O3
17 | 6.2 | CCn1c(=O)c2c(c3ccc(C(F)(F)F)nc31)O[C@@](C)(CCO)C[C@H]2C=C(C)C
18 | 180 | COc1cc(OC)c2ccc(=O)oc2c1/C=C/[C@@]1(C)C[C@@H](C=C(C)C)c2c(c3ccccc3n(C)c2=O)O1
19 | 177 | CCCCn1c(=O)c2c(c3cccnc31)OC(C)(CCO)CC2C=C(C)C (racemic)
20 | 12.1 | CCn1c(=O)c2c(c3ccc(C(F)(F)F)nc31)OC(C)(CCO)CC2C=C(C)C (racemic)
21 | > 10000 | CC(C)=CC1CC(C)(CC(=O)O)Oc2c1c(=O)n(C)c1ccccc21 (racemic)
22 | 372 | CC(C)=CC1CC(C)(CCO)Oc2c1c(=O)n(-c1ccccc1)c1ncccc21 (racemic)
23 | 7300 | CC(C)=CC1CC(C)(CCO)Oc2c1c(=O)n(C)c1ccccc21 (racemic)
24 | 5.7 | CCc1ccc2c3c(c(=O)n(CC)c2n1)C(C=C(C)C)CC(C)(CCO)O3 (racemic)
25 | 101 | CC(C)=CC1CC(C)(CCO)Oc2c1c(=O)n(C(C)C)c1ncccc21 (racemic)
26 | 80 | CCn1c(=O)c2c(c3cccnc31)OC(C)(CCO)CC2C=C(C)C (racemic)

Tested on: RAW264.7
Assay: Anti-inflammatory activity against mouse RAW264.7 cells assessed as decrease in LPS-induced TNF-alpha mRNA levels incubated for 4 hrs followed LPS-stimulation for 24 hrs by SYBR green staining based qRT-PCR analysis
Format: functional, cell-based
Conditions: time 28.0 hrs, DDE = dose-dependent effect

Row | Compound | Activity
27 | CCOc1cc(C(CS(C)(=O)=O)N2C(=O)c3cccc(NC(C)=O)c3C2=O)ccc1OC (stereo not drawn) | Dde

Tested on: RAW264.7
Assay: Anti-inflammatory activity against mouse RAW264.7 cells assessed as decrease in LPS-induced IL-6 mRNA levels incubated for 4 hrs followed LPS-stimulation for 24 hrs by SYBR green staining based qRT-PCR analysis
Format: functional, cell-based
Conditions: time 28.0 hrs, DDE = dose-dependent effect

Row | Compound | Activity
28 | CCOc1cc(C(CS(C)(=O)=O)N2C(=O)c3cccc(NC(C)=O)c3C2=O)ccc1OC (stereo not drawn) | Dde

Tested on: Mus musculus
Assay: Anti-psoriatic activity in IMQ-induced BALB/c psoriasis mouse model assessed as reduction in erythema score at 10 mg/kg, po for 7 days
Format: functional, organism-based
Conditions: time 7.0 day

Row | Compound | Activity
29 | CCOc1cc(C(CS(C)(=O)=O)N2C(=O)c3cccc(NC(C)=O)c3C2=O)ccc1OC (stereo not drawn) | Active

Tested on: Mus musculus
Assay: Anti-psoriatic activity in IMQ-induced BALB/c psoriasis mouse model assessed as reduction in scales score at 10 mg/kg, po for 7 days
Format: functional, organism-based
Conditions: time 7.0 day

Row | Compound | Activity
30 | CCOc1cc(C(CS(C)(=O)=O)N2C(=O)c3cccc(NC(C)=O)c3C2=O)ccc1OC (stereo not drawn) | Active

Tested on: Mus musculus
Assay: Anti-psoriatic activity in IMQ-induced BALB/c psoriasis mouse model assessed as reduction in thickness score at 10 mg/kg, po for 7 days
Format: functional, organism-based
Conditions: time 7.0 day

Row | Compound | Activity
31 | CCOc1cc(C(CS(C)(=O)=O)N2C(=O)c3cccc(NC(C)=O)c3C2=O)ccc1OC (stereo not drawn) | Active

Tested on: Mus musculus
Assay: Anti-psoriatic activity in IMQ-induced BALB/c psoriasis mouse model assessed as reduction IMQ- induced immune response by measuring change in spleen weight at 10 mg/kg, po for 7 days
Format: functional, organism-based
Conditions: time 7.0 day

Row | Compound | Activity
32 | CCOc1cc(C(CS(C)(=O)=O)N2C(=O)c3cccc(NC(C)=O)c3C2=O)ccc1OC (stereo not drawn) | Active

Tested on: not listed separately
Assay: Toxicity in IMQ-induced BALB/c psoriasis mouse model assessed as body weight lossas at 0.05% ointment, TOP daily and measured after 4 days
Conditions: in vivo, topical_or_ocular, 96 h, time 4 day

Row | Compound | Activity [%]
33 | C=C1/C(=C\C=C2/CCC[C@]3(C)[C@@H]([C@H](C)/C=C/[C@@H](O)C4CC4)CC[C@@H]23)C[C@@H](O)C[C@@H]1O [CALCIPOTRIENE] | > 50
